{
  "source": "patent US8686178B2",
  "about": "“Derivative of 18β-glycyrrhetinic acid apt to suppress cancer cells” (Kaohsiung Medical University, priority 2011, dated 2014)",
  "key": {"[1]": {"system": "human prostate cancer cell line PC3", "test": "Trial (B): MTT cytotoxicity assay, 72 hours", "assay_type": "cell-based", "conditions": "0-50 μM", "description": "For the sake of proving therapeutic effects of the derivatives of 18β-glycyrrhetinic acid of the present invention, including 10, 11, 13-17 and 21-25, in treating of cancer, human bladder cancer cell line NTUB1, human prostate cancer cell line PC3 cataloged as CRL-1435 (reference to J. Formosan Med. Assoc. 1992; 91:608-13), and immortalized normal human urothelial cells SV-HUC1 cataloged as CRL-9520 are purchased from American Type Culture Collection (ATCC; Rockville, USA) and maintained in a culturing medium respectively till at a preferable density to carry out a serial of trials (comprising trial A to G) for evaluating cytotoxicities of the derivatives of 18β-glycyrrhetinic acid against cancer cells, and mechanisms thereof. […]\nIn trial (B), the cell lines of NTUB1, PC3, and SV-HUC1 are prepared in 96-well plates and co-incubated with the compounds 21, 23 or 25 in various concentrations of 0, 0.3, 1, 3, 5, 10, 30 and 50 μM, to analyze cytotoxic effects against either cancer cell or normal cells via a modified 3-[4,5-dimethylthiazol-2-yl]-2,5-diphenyltetrazolium bromide (MTT, Sigma Chemical Co.) assay. […] At co-incubation, 50 μL of MTT (2 mg/mL in PB) is added to each well to react for 3 hours, followed by centrifugating the 96-well plates at 1000 g for 10 min to remove supernatant, adding 150 μL DMSO in each well of the 96-well plates, and determining viability rates of the NTUB1, PC3, and SV-HUC1 cells separately by an absorbance spectrometry at 540 nm with a MRX (DYNEXCO) microplate reader."}, "NTUB1 cells [2]": {"system": "NTUB1 cells", "test": "Trial (E): cell cycle progression by flow cytometry (propidium iodide)", "assay_type": "cell-based, human", "parameters": "Sub-G1 / G1: unit not given here", "conditions": "for G1 / G2/M / S / Sub-G1: 24 hours", "procedure": "In order to determine a relationship between the derivatives of 18β-glycyrrhetinic acid of the present invention and cell cycle arrest, trial (E) is carried out by analyzing cell cycle progression by flow cytometry. […] After that, cell cycle progression of each group is determined respectively by incubating with 50 μg/mL propidium iodide (Sigma, Co) and 50 μg/mL RNase A (Sigma, Co) in PBS at room temperature for 30 min, and analyzing by FACScan flow cytometer and Cell Quest sofeware."}, "NTUB1 cells [3]": {"system": "NTUB1 cells", "test": "Trial (F): mitochondrial membrane potential (JC-1) by flow cytometry", "assay_type": "cell-based, human", "conditions": "for R1 (%): 30 minutes, JC-1, NTUB1", "procedure": "In trial (F), mitochondrial membrane potential (MMP) in NTUB1 cells is measured according to a journal article published by Martin et al., at 2009 in PloS one, in which a dysfunction of the mitochondria caused by ROS induced MPP decrease is supposed.\nReferring to TABLE 6, the NTUB1 cells at a density of 3×10^5 cells/ml are prepared and assigned into 5 groups, including F1 to F5, to incubate in 10 μM carbonyl cyanide 3-chlorophenylhydrazone (CCCP), and 10, 25 and 50 μM of 25 respectively, for 30 minutes, followed by adding 1 μM of 5,5′,6,6′-tetrachloro-1,1′,3,3′-tetraethylbenzimidaolylcarbocyanine iodide (JC-1) (Molecular Probes, Eugene, Oreg., USA) in each group. Then, the NTUB1 cells in each group are washed with PBS buffer for 3 times, collected in PBS/2% BSA, washed twice by centrifugating at 800 g, 5 minutes and resuspending in 0.3 mL PBS/2% BSA, and finally analyzed by a FACSCalibur flow cytometer (Becton Dickinson), with the FACSCalibur flow cytometer determining and calculating a ratio of JC-1 aggregates (red fluorescence) to JC-1 monomers (green fluorescence) based on levels of MMP in each group."}, "p-p53 (Ser15)": {"system": "p-p53 (Ser15)", "test": "Trial (G): expression of p53 / p-p53 by Western blot", "assay_type": "cell-based, human", "conditions": "10, 25, 50 μM, 24 hours, NTUB1", "procedure": "In trial (G), expression of p53 is monitored via Western blot analysis in accordance with a journal article published by Son et al., at 2010 in Toxicol. Appl. Pharmacol., in which overproduction ROS induced p53 suppression is observed.\nReferring to TABLE 7, the NTUB1 cells at a density of 8×10^5 cells/ml are prepared and assigned into 9 groups, including G1-1 to G1-5 and G2-1 to G2-4, to incubate in various medium for 24 hours, followed by harvesting in trypsinization, resuspending in PBS till at a suitable density and collecting the NTUB1 cells of each group respectively.\nNext, the NTUB1 cells of each group are further diluted with equal volume of 2× sample buffer, boiled for 10 minutes twice to denature protein therein, and analyzed by SDS-PAGE. After that, proteins on SDS-PAGE datum are transferred to nitrocellulose membranes (Millipore, Billerica, Mass., USA) using a semi-dry blotter, followed by blocking with 5% (w/v) skimmed milk in TBST buffer (100 mM Tris-HCl (pH 7.5), 150 mM NaCl and 0.1% Tween-20), incubating with specific antibodies [including antibodies specific for b-acctin (NB600-501), p-p53 (Ser15) (9284) and p53 (DO1)]. at 4° C. overnight, washing with TBST buffer again and incubated with secondary antibody at room temperature. Finally, western data of each group are visualized on Fuji SuperRX film. […]"}},
  "data": [
    {"smiles": "C=C(C)[C@@H]1CC[C@]2(C)[C@H](C(=O)C=C3[C@@H]4C[C@@](C)(C(=O)NC(C)C)CC[C@]4(C)CC[C@]32C)[C@@]1(C)CCC(=O)NC(C)C", "note": "[Compound 25, 3,4-seco-11-oxo-18β-olean-4(23),12-dien-3,30-diisopropyl carbamate]", "values": [
      {"measurement": "cytotoxic effect (survival ratio, FIGS. 4-6)", "setting": "[1]", "value": "cytotoxic effects against to the cancer cells in a dose-dependent manner"},
      {"measurement": "G1", "setting": "NTUB1 cells [2]; 25 μM, NTUB1", "value": 49.51},
      {"measurement": "G2/M", "setting": "NTUB1 cells [2]; 25 μM, NTUB1", "value": 12.68},
      {"measurement": "S", "setting": "NTUB1 cells [2]; 25 μM, NTUB1", "value": 12.69},
      {"measurement": "Sub-G1", "setting": "NTUB1 cells [2]; 25 μM, NTUB1", "value": 20.39},
      {"measurement": "G1", "setting": "NTUB1 cells [2]; 50 μM, NTUB1", "value": 35.72},
      {"measurement": "G2/M", "setting": "NTUB1 cells [2]; 50 μM, NTUB1", "value": 5.22},
      {"measurement": "S", "setting": "NTUB1 cells [2]; 50 μM, NTUB1", "value": 3.15},
      {"measurement": "Sub-G1", "setting": "NTUB1 cells [2]; 50 μM, NTUB1", "value": 55.71},
      {"measurement": "G1", "setting": "NTUB1 cells [2]; 75 μM, NTUB1", "value": 14.69},
      {"measurement": "G2/M", "setting": "NTUB1 cells [2]; 75 μM, NTUB1", "value": 4.00},
      {"measurement": "S", "setting": "NTUB1 cells [2]; 75 μM, NTUB1", "value": 2.79},
      {"measurement": "Sub-G1", "setting": "NTUB1 cells [2]; 75 μM, NTUB1", "value": 78.39},
      {"measurement": "cell cycle arrest", "setting": "NTUB1 cells [2]; 25, 50 and 75 μM, NTUB1", "value": "does not induce cell cycle arrest"},
      {"measurement": "population of sub-G1 phase", "setting": "NTUB1 cells [2]; 25, 50 and 75 μM, NTUB1", "value": "induce the population of sub-G1 phase to cancer cells in dose-dependent manner"},
      {"measurement": "S phase cells", "setting": "NTUB1 cells [2]; NTUB1 exposed to compound", "value": "a decrease of S phase cells"},
      {"measurement": "R1 (%)", "setting": "NTUB1 cells [3]; 10 μM", "value": 94.14, "unit": "%"},
      {"measurement": "R1 (%)", "setting": "NTUB1 cells [3]; 25 μM", "value": 87.17, "unit": "%"},
      {"measurement": "R1 (%)", "setting": "NTUB1 cells [3]; 50 μM", "value": 55.65, "unit": "%"},
      {"measurement": "mitochondrial membrane potential", "setting": "NTUB1 cells [3]; NTUB1, TABLE 6", "value": "decrease MPP in cancer cells in a dose-dependent manner"},
      {"measurement": "levels of p-p53 (Western blot, FIGS. 9, 10)", "setting": "p-p53 (Ser15)", "value": "increase levels of p-p53 in a dose-dependent manner"}
    ]}
  ]
}
